Reference: US20050101595A1, “N-containing cycloalkyl-substituted amino-thiazole derivatives and pharmaceutical compositions for inhibiting cell proliferation and methods for their use” (PFIZER INC., priority 2003, published 2005)
Structures can show the parent of a compound that is named as a salt. Where two headings read alike, the source gives them in different places. One block for each compound: values may come before it.

Tests used:
HCT-116 cell line = assay: Inhibition of cell growth, tetrazolium salt (MTT) assay; type: cell-based; settings: for HCT-116 % Inhibition at 0.25 μM: 0.25 μM compound; for IC50: Homo sapiens, HCT-116, 120 h, MTT, three to five days, read-out: HCT-116 IC50
In short: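 Cells in McCoy's 5A medium were left 4 h, then given graded compound concentrations in 0.5% (v/v) DMSO and incubated three to five days at 37° C (5% CO2). MTT was added to 0.2 mg/mL for 4 h more; DMSO-solubilized formazan was read at 540 nm against 0.5% DMSO-only controls.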

[1] = biological target: human CDK4 and genetically truncated (1-264) cyclin D3 (Homo sapiens, UniProt P11802); assay: Inhibition of CDK4/Cyclin D Retinoblastoma Kinase Activity; type: biochemical; settings: for Ki: apparent Ki, CDK4/truncated cyclin D3, Rb fragment substrate, 25 μM ATP
In short: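 Human CDK4/truncated cyclin D3 (1-264) complex from baculovirus-infected insect cells, 5 nM, phosphorylating Rb fragment (residues 386-928, His-tagged) with 25 μM [32/33P]ATP in HEPES pH 7.4, MgCl2, 2% DMSO at 30° C. for 20 min (60 min for tight binders). Filter-captured radioactivity by phosphorimager; apparent Ki from competitive or tight-binding fits.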

CDK2/Cyclin A = CDK2/Cyclin A (Homo sapiens, UniProt P24941); assay: Inhibition of CDK2/Cyclin A Retinoblastoma Kinase Activity; type: biochemical; settings: for Ki: apparent Ki, CDK2/proteolyzed cyclin A, Rb fragment substrate, 25 μM ATP
In short: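 Baculovirus-expressed CDK2 complexed with proteolyzed cyclin A (10 or 19 nM), Rb fragment substrate, 25 μM [32P/33P]ATP, HEPES pH 7.4, 30 °C for 60 or 75 min under initial-rate conditions. Filter capture and phosphorimager readout; apparent Ki fitted to competitive or tight-binding competitive inhibition.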

[2] = 0.1 μM compound, HCT-116, Table 4
[3] = 0.1 μM compound, HCT-116, Table 3

Chain of human CDK4 and genetically truncated (1-264) cyclin D3 (P11802 whole entry, the tested form may be a part): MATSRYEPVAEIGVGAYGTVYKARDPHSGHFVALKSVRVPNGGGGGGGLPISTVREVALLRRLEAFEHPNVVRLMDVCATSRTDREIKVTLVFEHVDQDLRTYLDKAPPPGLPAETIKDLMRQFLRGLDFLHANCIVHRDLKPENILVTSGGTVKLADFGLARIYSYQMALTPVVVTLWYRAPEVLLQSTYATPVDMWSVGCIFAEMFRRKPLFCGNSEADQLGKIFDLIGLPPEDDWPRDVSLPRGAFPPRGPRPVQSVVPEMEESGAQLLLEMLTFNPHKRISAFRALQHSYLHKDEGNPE
Chain of human CDK4 and genetically truncated (1-264) cyclin D3 (P30281 1-264 partner): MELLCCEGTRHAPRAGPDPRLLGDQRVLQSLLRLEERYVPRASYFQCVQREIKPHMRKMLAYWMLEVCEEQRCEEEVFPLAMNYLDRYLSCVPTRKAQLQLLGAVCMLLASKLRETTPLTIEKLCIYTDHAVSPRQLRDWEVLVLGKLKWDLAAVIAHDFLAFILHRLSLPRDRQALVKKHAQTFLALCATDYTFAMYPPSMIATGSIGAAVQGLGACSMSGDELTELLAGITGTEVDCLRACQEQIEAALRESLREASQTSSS

SMILES: CC(C)NC(=O)N1CCC(Nc2nc(N)c(C(=O)c3c(F)cccc3F)s2)CC1 [Example O29]
- HCT-116 % Inhibition at 0.25 μM (HCT-116 cell line; HCT-116, Table 2): 33%
- CDK4 % Inhibition at 0.03 μM ([1]; 0.03 μM compound, Table 2): 10%
- CDK2 % Inhibition At 0.03 μM (CDK2/Cyclin A; 0.03 μM compound, Table 2): 30%

SMILES: Nc1nc(NC2CCN(S(=O)(=O)c3ccc(OCCN4CCOCC4)nc3)CC2)sc1C(=O)c1c(F)cccc1F [Example H2, 1-{4-Amino-2-[1-{6-morpholin-(4-yl-ethoxy)-pyridine-3-sulfonyl}-piperidin-4-ylamino]-thiazol-5-yl}-1-(2,6-difluoro-phenyl)-methanone Hydrochloride]
- IC50 (HCT-116 cell line; first HCT-116 column (c4)): 80 nM
- IC50 (HCT-116 cell line; second HCT-116 column (c5)): 250 nM
- Ki [1]: 0.77 nM
- Ki (CDK2/Cyclin A): 2.8 nM

SMILES: Nc1nc(NC2CCN(S(=O)(=O)c3ccc(Cl)s3)CC2)sc1C(=O)c1c(F)cccc1F [Example P36]
- HCT-116 % Inhibition at 0.1 μM (HCT-116 cell line; [3]): 8%
- HCT-116 % Inhibition at 0.25 μM (HCT-116 cell line; HCT-116, Table 3): 26%
- CDK4 % Inhibition at 0.03 μM ([1]; 0.03 μM compound, Table 3): 66%
- CDK2 % Inhibition at 0.03 μM (CDK2/Cyclin A; 0.03 μM compound, Table 3): 54%

SMILES: Cc1nccn1-c1ccc(S(=O)(=O)N2CCC(Nc3nc(N)c(C(=O)c4c(F)cccc4F)s3)CC2)cn1 [Example G26, 1-(4-Amino-2-{1-[6-(2-methyl-imidazol-1-yl)-pyridine-3-sulfonyl]-piperidin-4-ylamino}-thiazol-5-yl)-1-(2,6-difluoro-phenyl)-methanone]
- IC50 (HCT-116 cell line; first HCT-116 column (c4)): 140 nM
- IC50 (HCT-116 cell line; second HCT-116 column (c5)): 220 nM
- Ki [1]: 1.3 nM
- Ki (CDK2/Cyclin A): 0.64 nM

SMILES: Nc1nc(NC2CCN(S(=O)(=O)c3ccc([N+](=O)[O-])cc3)CC2)sc1C(=O)c1c(F)cccc1F [Example P19]
- HCT-116 % Inhibition at 0.1 μM (HCT-116 cell line; [3]): 19%
- HCT-116 % Inhibition at 0.25 μM (HCT-116 cell line; HCT-116, Table 3): 30%
- CDK4 % Inhibition at 0.03 μM ([1]; 0.03 μM compound, Table 3): 73%
- CDK2 % Inhibition at 0.03 μM (CDK2/Cyclin A; 0.03 μM compound, Table 3): 63%

SMILES: CC(=O)N(C)C1CCN(CCCS(=O)(=O)N2CCC(Nc3nc(N)c(C(=O)c4c(F)cccc4F)s3)CC2)C1 (stereo not shown) [Example K20, N-{1-[3-(4-{4-Amino-5-[1-(2,6-difluoro-phenyl)-methanoyl]-thiazol-2-ylamino}-piperidine-1-sulfonyl)-propyl]-pyrrolidin-3-yl}-N-methyl-acetamide]
- IC50 (HCT-116 cell line; first HCT-116 column (c4)): 2000 nM
- IC50 (HCT-116 cell line; second HCT-116 column (c5)): 5000 nM
- Ki [1]: 1.5 nM
- Ki (CDK2/Cyclin A): 4.8 nM

SMILES: CCc1cc(Br)ccc1S(=O)(=O)N1CCC(Nc2nc(N)c(C(=O)c3c(F)cccc3F)s2)CC1 [Example P78]
- HCT-116 % Inhibition at 0.1 μM (HCT-116 cell line; [3]): 27%
- HCT-116 % Inhibition at 0.25 μM (HCT-116 cell line; HCT-116, Table 3): 23%
- CDK4 % Inhibition at 0.03 μM ([1]; 0.03 μM compound, Table 3): 24%
- CDK2 % Inhibition at 0.03 μM (CDK2/Cyclin A; 0.03 μM compound, Table 3): 17%

The next lines start with results.

- CDK4 % Inhibition at 0.03 μM ([1]; 0.03 μM compound, Table 4): 47%
- CDK2 % Inhibition at 0.03 μM (CDK2/Cyclin A; 0.03 μM compound, Table 4): 21%
SMILES: Nc1nc(NC2CCN(C(=O)/C=C/c3ccccc3)CC2)sc1C(=O)c1c(F)cccc1F [Example Q45]
- HCT-116 % Inhibition at 0.1 μM (HCT-116 cell line; [2]): 0%
- HCT-116 % Inhibition at 0.25 μM (HCT-116 cell line; HCT-116, Table 4): 31%

- CDK4 % Inhibition at 0.03 μM ([1]; at 0.03 μM): 34%
- CDK2 % Inhibition at 0.03 μM (CDK2/Cyclin A; at 0.03 μM): 18%
SMILES: Nc1nc(NC2CCN(C(=O)CCCC3CCCCC3)CC2)sc1C(=O)c1c(F)cccc1F [Example R102]
- HCT-116 % Inhibition at 0.1 μM (HCT-116 cell line; HCT-116 cells, at 0.1 μM): 0%
- HCT-116 5 Inhibition at 0.25 μM (HCT-116 cell line; HCT-116 cells): 43

- CDK4 % Inhibition at 0.03 μM ([1]; 0.03 μM compound, Table 4): 59%
- CDK2 % Inhibition at 0.03 μM (CDK2/Cyclin A; 0.03 μM compound, Table 4): 21%
SMILES: Nc1nc(NC2CCN(C(=O)c3cccc(Cl)c3)CC2)sc1C(=O)c1c(F)cccc1F [Example Q19]
- HCT-116 % Inhibition at 0.1 μM (HCT-116 cell line; [2]): 32%
- HCT-116 % Inhibition at 0.25 μM (HCT-116 cell line; HCT-116, Table 4): 83%

- CDK4 % Inhibition at 0.03 μM ([1]; at 0.03 μM): 63%
- CDK2 % Inhibition at 0.03 μM (CDK2/Cyclin A; at 0.03 μM): 50%
SMILES: Cc1ccc(C(=O)N2CCC(Nc3nc(N)c(C(=O)c4c(F)cccc4F)s3)CC2)cc1 [Example R154]
- HCT-116 % Inhibition at 0.1 μM (HCT-116 cell line; HCT-116 cells, at 0.1 μM): 0%
- HCT-116 5 Inhibition at 0.25 μM (HCT-116 cell line; HCT-116 cells): 27

- CDK4 % Inhibition at 0.03 μM ([1]; at 0.03 μM): 58%
- CDK2 % Inhibition at 0.03 μM (CDK2/Cyclin A; at 0.03 μM): 42%
SMILES: Cc1ccc(C(=O)N2CCC(Nc3nc(N)c(C(=O)c4c(F)cccc4F)s3)CC2)cc1F [Example R131]
- HCT-116 % Inhibition at 0.1 μM (HCT-116 cell line; HCT-116 cells, at 0.1 μM): 1%
- HCT-116 5 Inhibition at 0.25 μM (HCT-116 cell line; HCT-116 cells): 44

- CDK4 % Inhibition at 0.03 μM ([1]; at 0.03 μM): 37%
- CDK2 % Inhibition at 0.03 μM (CDK2/Cyclin A; at 0.03 μM): 7%
SMILES: Nc1nc(NC2CCN(C(=O)N3CCOCC3)CC2)sc1C(=O)c1c(F)cccc1F [Example R80]
- HCT-116 % Inhibition at 0.1 μM (HCT-116 cell line; HCT-116 cells, at 0.1 μM): 0%
- HCT-116 5 Inhibition at 0.25 μM (HCT-116 cell line; HCT-116 cells): 47

- CDK4 % Inhibition at 0.03 μM ([1]; at 0.03 μM): 6%
- CDK2 % Inhibition at 0.03 μM (CDK2/Cyclin A; at 0.03 μM): 7%
SMILES: CC(C(=O)N1CCC(Nc2nc(N)c(C(=O)c3c(F)cccc3F)s2)CC1)c1ccccc1 (stereo not shown) [Example R160]
- HCT-116 % Inhibition at 0.1 μM (HCT-116 cell line; HCT-116 cells, at 0.1 μM): 0%
- HCT-116 5 Inhibition at 0.25 μM (HCT-116 cell line; HCT-116 cells): 37
